According to patent US8524222B2, “Bacillus isolates and methods of their use to protect against plant pathogens and virus transmission” (Montana State University, priority 2006, dated 2013):
Values joined by “and” are separate entries in the source; they are usually repeats but may differ in a detail not shown here. Equal values may be shown once.

What was measured:
Chitinase [1] = test: Glycol chitin plate assay for chitinase activity (screening); type: in vivo, sugar beet; settings: cumulative results, 6 days after treatment
Experimental: (§1) The leaf penultimate to the oldest true leaf was treated with one of the Bacillus strains. […] The plants were kept at 28+/−2° C. for 6 days at which time the apoplastic proteins were collected as described by Klement (1965), with the following modification: a buffer containing 150 mM NaCl and 25 mM MES, pH 6.2, was substituted for distilled water. The proteins were quantified by Bradford reagent (Bio-Red) using bovine serum albumin as standards and frozen at −80° C. until analyzed.
Apoplastic protein (0.009, 0.006, and 0.005 ug for each sample in replicates of 3) was added to wells in a 1% agarose gel containing 0.01% glycol chitin in a 14 cm diameter glass petri plate, along with chitinase standards (Streptomyces griseus, Sigma). The plates were incubated at 37° C. for 24 hours. Following incubation. 50 ml of 500 mM Tris-HCl (pH 8.9) containing 0.01°/fluorescent brightener was added to the plate for 10 min. The plate was then rinsed three times with distilled water, flooded with water, and allowed to destain in the dark for 2-24 hours. The non-fluorescent lytic zones on a fluorescent background were measured while the plate was on a 302 nm UV light source. Specific activity (mg of N-acetyl-D-glucosamine released/hr/mg of apoplastic protein) was determined by comparison of the lyric zone diameter of the standards and the apoplastic samples (Velasquez. 2002).

B-1,3-glucanase [2] = test: B-1,3-glucanase specific activity of apoplastic protein (glucose release from laminarin); type: in vivo, sugar beet; settings: distal leaves, six days post treatment
Experimental: (§2) One leaf per replicate was collected for each treatment and immediately placed in buffer (150 mm NaCl, 25 mm MES, pH 6-2). Apoplast extractions were collected as described by Klement having substituted buffer (150 mM NaCl, 25 mm MES. pH 6.2) for water.
The specific activity of sugar beet apoplastic B-1,3-glucanase was determined by measuring the release of glucose units from laminarin. Sodium acetate buffer (100 IJI, pH 5.0, 100 mM) containing 0.5% laminarin and 0.5 ug-2.0 ug apoplastic protein (plants per treatment replicated 3 times) was incubated at 3rc for 30-60 min. Following incubation, 900 ul of water and 1 ml of alkaline copper reagent was added to each 2 reaction. The tubes were then placed into a boiling water bath for 10 min. After cooling on ice, 1 ml arsenomolybdate color reagent was added to each reaction. Once the bubbling had subsided, 10 ml of water were added to each tube before reading the A660.

Peroxidase = test: Apoplastic peroxidase activity (guaiacol reagent); type: in vivo, sugar beet; settings: distal leaves, six days post treatment
Experimental: The concentration of protein as adjusted to give a change in absorbance units greater than 0.100, but less than 0.200, per minute. Specific activity was expressed as the increase inabsorbance (A470) over time (2 min) per mg of protein, as determined using Bradford reagent (BioRAD).

[3] = system: chitinase and B-1,3-glucanase; test: Combined glycol chitin and aniline blue plate assays as predictor of SAR induction; type: in vivo, sugar beet; parameters: key: ✓: correctly identified all SAR-inducing isolates, indicated by check marks in Table 5; settings: identified as SAR-inducer by increased activity of both defense proteins
Description: There may be circumstances where the occurrence of chitinase and B-glucanase alone is not correlated with disease control (Punja, 2001), especially with fungal pathogens, since the enzymes function synergistically (Melchers and Stuiver, 2000). Therefore examination of the defense proteins together provides a more accurate prediction of disease control capability. Based on the assumption that increased activity for both defense proteins indicated SAR-inducing capacity, combined results from the glycol chitin and aniline blue plate assays correctly identified all SAR-inducing isolates, indicated by check marks in Table 5.

salicylic acid = system: salicylic acid; parameters: species or system sugar beet; settings: in vivo
Cercospora beticola [4] = system: Cercospora beticola; parameters: species or system sugar beet; settings: in vivo
[5] = system: Fusarium culmorum isolate 2279; parameters: species or system spring wheat; settings: in vivo
NPR1 = system: NPR1; parameters: species or system sugar beet; settings: in vivo
[6] = system: hydrogen peroxide production; test: Phenol red oxidation assay for biphasic hydrogen peroxide production in protoplasts and leaf disks; type: cell-based, sugar beet
Experimental: Sugar beet protoplasts were isolated from sugar beet leaves to provide a medium to measure hydrogen peroxide production. Sugar beet leaves were gently brushed on the adaxial and abaxial surfaces with a 50 ft bristle brush to create small abrasions. The leaves were then cut into 1 cm strips and vacuum infiltrated for 5 min with 0.7 M sucrose containing 3.8% CaCL2, CPW salts (Frearson et al, 1973), 1.2% cellulase (Sigma), and 0.4% macerozyme (ICN Biomedicals). The infiltrated leaves were incubated in the 0.7M sucrose-salt and enzyme solution for 24-48 hours in the dark. […]
To determine if the Bacillus strains elicited biphasic hydrogen peroxide production in sugar beet, phenol red oxidation assays were performed according to Pick and Keisari (1980). […] The amount of hydrogen peroxide produced from protoplasts in response to treatment with a Bacillus control agent was calculated as follows: amount of hydrogen peroxide produced in Bacillus protoplast reactions—(amount of hydrogen peroxide produced in protoplast only reactions+amount of hydrogen peroxide produced in Bacillus-only reaction). The amount of hydrogen peroxide produced by the leaf disks in response to Bacillus treatment was calculated as follows: amount of hydrogen peroxide produced by Bacillus-treated leaf disks-amount of hydrogen peroxide produced by leaf disks only reaction.

B-1,3-glucanase [7] = test: Aniline blue plate assay for B-glucanase activity (screening); type: in vivo, sugar beet; settings: cumulative results, 6 days after treatment
Experimental: as §1
Apoplastic protein (0.75, 0.50, and 0.25 ug for each sample in replicates of 3) was added to 3-mm diameter wells in a 0.5% agarose gel containing 0.005% aniline blue (MCB) and 0.5m.1/ml laminarin (from Laminaria digitata, Sigma) in a 14 cm diameter glass petri plate, along with laminarinase (Penicillium spp., Sigma) standards (2×10.5−2×10^−3 units of lamina˜inase). The plates were incubated at 30° C. for 18-24 hours. Following Incubation, the pink lytic zones on a blue background were measured while the plate was on a white light source. Specific activity (ug of glucose released/min/mg of apoplastic protein) was determined by comparison of the lytic zone diameter of the standards and the apoplastic samples.

Cercospora beticola [8] = system: Cercospora beticola; parameters: species or system sugar beet; settings: in vivo; remark: listed apart in the source
Chitinase [9] = test: Chitinase specific activity of apoplastic protein by plate assay, six days post treatment; type: in vivo, sugar beet; settings: distal leaves
Experimental: as §2
Chitinase Specific Activity Determination by Plate Assay Sodium phosphate buffer (pH 5.0, 0.01 M) containing 1 agarose and 0.1% glycol chitin was added to a 9 cm diameter glass petri dish. Wells, 3 mm diameter, were excised from the agarose (three per sample for each of the three replicates per treatment). Dilutions of apoplastic protein (0.7, 0.35, and 0.23 ug) and chitinase standards (chitinase from Streptomycesgriseus Sigma) were loaded into the wells. The plate was incubated at 37° C. for 24 h. Following the incubation, 50 ml of 500 mMTris-HCl (pH 8.9) containing 0.01% fluorescent brightener was added to the plate and incubated for 10 min. The plate was then quickly rinsed 3× with water, flooded with water, and destained overnight in the dark. Non-fluorescent lytic regions on a fluorescent background were measured while the plate was on an uv light source. Specific activity (mg of N-acetyl-n-glucosamine released /hr /mg of apoplastic protein) was determined by comparison of the diameters of the lytic regions for the standards and the lytic regions for the apoplastic protein samples [55]. Results

Botrytis cinerea = system: Botrytis cinerea; parameters: species or system Arabidopsis thaliana; settings: in vivo
C. beticola = test: Field studies of Cercospora leaf spot control, Sidney, Mont.; parameters: species or system sugar beet; settings: in vivo
Experimental: Field studies were conducted at the Eastern Agricultural Research Center in Sidney, Mont. from 1996 through 2003. Sugar beet variety ‘Beta 1996’ was planted the first year, VDH 66140 was planted the second year, HH88 the third year, KW2262 the fourth year and Beta 2185 the fifth, sixth, and seventh years. All cultivars were equally susceptible to C. beticola infection (BetaSeed, Shakopee, Minn., U.S.A.). […] In the last two years, freshly grown, washed cells were harvested from a 24 h tryptic soy broth culture grown at room temperature and prepared as described above, and applied to the plants. Fungicide treatments included triphenyltin hydroxide (TPTFI, SuperTin, Griffin L.L.C.), propiconazole (Tilt, Syngenta Crop Protection, Inc) and tetraconazole (Eminent, Sipeam Agro USA Inc.) that were applied at 390, 253 and 876 g ai ha^−1, respectively. All treatments were applied at 1761 ha^−1 using a CO2 backpack sprayer with a 4-nozzle boom starting at disease onset and continued at 14 day intervals for a total of four sprays. Plots were arranged “in a randomized complete block design. with six replicates per treatment. […] Area under the disease progress curve (AUDPC) was calculated for treated and untreated plants and percent disease control was determined as follows: 1-([…])*100. […]

Q: Which results are given for `CSC(=O)c1cccc2nnsc12` [ASM, Acibenzolar-S-methyl]?
A: Glycol chitin plates (Chitinase [1]): 3.09hed; Specific Activity Beta-glycanase (B-1,3-glucanase [2]): 198.6 micrograms of glucose released per minute per milligram of apoplastic protein; Specific Activity Peroxidase (Peroxidase): 71.4 changes in absorbance (470 nm) per minute per milligram of apoplastic protein; Aniline blue and glycol chitin plates [3]: ✓; total SA levels over a 48 hour sampling scheme versus time zero (salicylic acid): lack of SA accumulation; disease reduction (Cercospora beticola [4]): 50%; Disease Severity Index (%) [5]: 60.43% and 46.88% and 42.73 b % and 48.97% and 37.53 ab % and 47.31 b %; activation of NPR1 (NPR1): activated NPR1 by 48 hours; biphasic hydrogen peroxide production [6]: did not induce biphasic hydrogen peroxide production; Aniline blue plates (B-1,3-glucanase [7]): 5.70a; % Reduction at 21 DPC (Cercospora beticola [8]): 63.6% and 64.6%; Specific Activity Chitinase (Chitinase [9]): 1.26 milligrams of N-acetyl-n-gluco

Q: For `C=CCOC1=NS(=O)(=O)c2ccccc21` [PBZ, Probenazole], which “% disease reduction in comparison to distilled water” value (from here on “% disease reduction in comparison”) (Botrytis cinerea) is on record?
A: The value was 41.9 c %.

Q: How did the “activation of NPR1” value (NPR1) turn out when `O=C(O)c1ccccc1O` [SA, salicylic acid] was run?
A: The value was “activated NPR1 by 48 hours”.

Q: For `[OH][Sn]([c]1ccccc1)([c]1ccccc1)[c]1ccccc1` [TPTH, triphenyltin hydroxide], which “Disease Reduction by Year” value (C. beticola) is on record?
A: Its value is 81% and 90% and 94% and 72% and 88^d %.

Q: How did the “% disease reduction in comparison” value (Botrytis cinerea) turn out when `O=P(O)(O)CCCl` [ethephon, 2-chloroethylphosphonic acid] was run?
A: Its value is 28.1 b %.

Q: How did the “% disease reduction in comparison” value (Botrytis cinerea) turn out when `CC/C=C\CC1C(=O)CCC1CC(=O)OC` (centres unmarked) [methyl jasmonate] was run?
A: The value was 49.9 d %.
